According to patent publication US20250281466A1, “USE OF CLOPIDOGREL OR COMBINATIONS THEREOF TO TREAT AMYOTROPHIC LATERAL SCLEROSIS, DAMAGES CAUSED BY THE NORMAL AGING PROCESS, NERVE INJURIES, MUSCULAR DYSTROPHY, STRENUOUS PHYSICAL ACTIVITIES AND OTHER CONDITIONS THAT AFFECT SYNAPSES AS WELL AS SKELETAL MUSCLES” (Brown University, priority 2024, published 2025):
Read-outs that look alike come from different tables or passages of the source.

Assays:
SOD1^G93A mice [1] = details: Clopidogrel 1 mg/kg for 30 days from 90 days old, versus vehicle (FIG. 3C)
Method: (§1) We treated SOD1^G93A mice with either vehicle or Clopidogrel (1 mg/kg) for 30 days starting at symptom onset (90 days old). […] The EDL and TA are hindlimb muscles mostly composed of fast-twitch fibers that play similar function in leg movement. These muscles are adjacent to each other and are affected early in ALS38.

mouse model of ALS = test system: mouse model of ALS
From the text: FIGS. 11A-11F provide a summary of Clopidogrel treatment on mouse model of ALS. FIG. 11A (control) and FIG. 11B provide images showing neuromuscular junctions (NMJs) treated with vehicle (control) and Clopidogrel. Blue depicts axons and Magenta muscle region in contact with motor axons.
FIGS. 11A-11F provide a summary of Clopidogrel treatment on a mouse model of ALS. FIG. 11A (control, left) and FIG. 11B (Clopidogrel, right) provide images showing neuromuscular junctions (NMJs) treated with vehicle (control, left) and Clopidogrel (right). Blue (or grey in upper panels) depicts axons and Magenta (grey in lower panels) muscle region in contact with motor axons.

SOD1^G93A mice [2] = details: SOD1^G93A mice examined at 15 and 30 days after treatment starting at 90 days of age, compared to vehicle (FIG. 5B)
From the text: NeuroScore involved observing the ability of mice to control the position and mobility of both hindlimbs independently of each other. In this 0-4 point scoring system, 0 represents normal control and 4 represents complete loss of the ability to command hindlimb movement (FIG. 5A).
We also assessed disease progression in mice using the neurological scoring system (NeuroScore) which is used to determine disease stage in SOD1^G93A mice. NeuroScore involved observing the ability of mice to control the position and mobility of both hindlimbs independently of each other. In this 0-4 point scoring system, 0 represents normal control and 4 represents complete loss of the ability to command hindlimb movement (for example, see FIG. 5A).

SOD1^G93A mice [3] = details: EDL of P120 SOD1^G93A mice, versus vehicle, *p<0.05, n=7-8
Method: as §1
Discussion of Research Design (current) and Experimental Methods: Currently Disclosed Aim 1A: Identify the optimal Clopidogrel dose to protect NMJs from ALS.

SOD1^G93A mice [4] = details: P120 SOD1^G93A mice
From the text: In FIGS. 4A-4H, DigiGait™ was used for gate analysis of P120 SOD1^G93A mice treated with Vehicle or the P2Y12 antagonist Clopidogrel. […] Scale bar=10 μm.
To this end, before sacrificing mice for histological analysis, we examined the gait patterns of SOD1^G93A mice treated with Clopidogrel and vehicle using the DigiGait™ system.

mice = details: general statement before a planned dose pilot study; cited from earlier work
[5] = general statement, no test described; cited from earlier work

COC(=O)[C@H](c1ccccc1Cl)N1CCc2sccc2C1 [Clopidogrel]
TA muscle mass (SOD1^G93A mice [1]): significantly preserved the overall mass of the tibialis anterior (TA) muscle
TA muscle mass (SOD1^G93A mice [1]; listed as clopidogrel): higher TA muscle mass
intactness of muscle regions in contact with motor axons (NMJ) (mouse model of ALS; versus vehicle control (FIG. 11C, 11E)): more intact
number of denervated NMJs (mouse model of ALS; versus vehicle control (FIG. 11D, 11F)): reduces the number of denervated NMJs
disease progression by NeuroScore (0-4 point scoring system) (SOD1^G93A mice [2]): the disease progressed slower
fully denervated NMJs (analysis of NMJ innervation, FIG. 3B) (SOD1^G93A mice [3]): fewer fully denervated NMJs
stride frequency (DigiGait) (SOD1^G93A mice [4]; compared to vehicle, n=3-5 (FIG. 4A, 4B)): increases stride frequency
swing duration (DigiGait) (SOD1^G93A mice [4]; compared to vehicle, n=3-5 (FIG. 4C, 4D)): reduces swing duration
percent brake of stride (DigiGait) (SOD1^G93A mice [4]; forelimb and hindlimb, versus vehicle (FIG. 4G, 4H)): increased
brake time (DigiGait) (SOD1^G93A mice [4]; versus vehicle (FIG. 4E, 4F)): increased the brake time
side effects in mice (mice): lethargy, weight loss and internal bleeding
crossing of the blood-brain-barrier (BBB) [5]: does not cross the blood-brain-barrier
